Earlier results in patent US8133524B1, “Food composition for hemophagous insects” (Tokitae LLC, priority 2010, dated 2012).
“Also recorded” adds a separate entry of the source.

Test system: Aedes aegypti mosquitoes
Conditions: mosquitoes fed with human red blood cells or blood

## CC[C@H](C)[C@H](N)C(=O)O [isoleucine]
  effect of isoleucine supplementation on egg production / egg-laying: enhanced egg production rate; also recorded: enhanced egg-laying after blood feeding
